In test [1] the test system is LPS-induced PGE2 production. The test is described as follows: Inhibition of LPS-induced PGE2 production in PMA-differentiated HL-60 cells (ELISA). The test is classed as cell-based. To be noted: Homo sapiens. A general note: An ELISA detects its analyte on a solid surface through an enzyme-linked reagent.
Test [2] has as its system LPS-induced TNF-α production. The experiment in a line: Inhibition of LPS-induced TNF-α production in PMA-differentiated HL-60 cells (ELISA). Conditions: Homo sapiens, read-out: IC50 TNF-α (50% inhibition of LPS-induced mediator production). The format is cell-based.
The next test relates to TNF-α. To be noted: Chan et al. 1995; Abe et al. 1999; cited from earlier work.
In the next test the test system is COX-2 mRNA. The test is described as follows: COX-2 expression assay (Quantikine mRNA) in LPS-stimulated HL-60 cells. Conditions: HL-60 cells + LPS.
The subject of another test is COX-2 expression. Conditions: Lee et al. 2002; IC50 values not reported; cited from earlier work.
Where [3] appears, read: Table 1, curcuminoids from fraction 5, HL-60 cells, LPS 1 μg/ml, 24 hrs, read-out: IC50 PGE2 (50% inhibition of LPS-induced mediator production).
Setting [4] is: Table 1, curcuminoids from fraction 5, HL-60 cells, LPS 1 μg/ml, 24 hrs.

Values after ≈ are worked out from the molar mass of the structure shown. Like-named read-outs stand apart in the source and are kept apart here.

In general, IC50 refers to the concentration that gives 50% inhibition. Consider `O=C(/C=C/c1ccc(O)cc1)CC(=O)/C=C/c1ccc(O)cc1` (single isomer, unassigned) [Bisdemethoxycurcumin, bisdemethoxycurcumin], for which the IC50 was 1.2 µg/mL (≈ 3.89 µM) in test [1] (setting [3]) and 24.6 µg/mL (≈ 79.8 µM) in test [2] (setting [4]).

Regarding `COc1cc(/C=C/C(=O)CC(=O)/C=C/c2ccc(O)c(OC)c2)ccc1O` (single isomer, unassigned) [Curcumin, curcumin], the “concentration producing 50% decrease in production of TNF-α” value in the test with TNF-α is 2 to 10 µg/mL. The IC50 in test [1] (setting [3]) stood at 0.45 µg/mL (≈ 1.22 µM); in test [2] (setting [4]), 28.8 µg/mL (≈ 78.2 µM). In addition, the “inhibition (decrease) of COX-2 expression” value with COX-2 mRNA (0.5 μg/mL, 24 hrs, relative to LPS alone = 100%) is “greater than 50%”. The “inhibition of COX-2 expression” value with COX-2 mRNA (1.0 μg/ml, 24 hrs, relative to LPS alone = 100%) is given as “greater than 50%”. The “effect on COX-2 expression / COX-2 mRNA levels” value in the test with COX-2 mRNA (concentration not given, result in words) is listed as “inhibited COX-2 expression”.

On to `COc1cc(/C=C/C(O)=C/C(=O)/C=C/c2ccc(O)cc2)ccc1O` (single isomer, unassigned) [Demethoxycurcumin, demethoxycurcumin], for which the concentration for half-maximal inhibition (IC50) came out at 2.6 µg/mL (≈ 7.68 µM) in test [1] (HL-60, 24 h, read-out: IC50 PGE2 (50% inhibition of LPS-induced mediator production)) and 24.7 µg/mL (≈ 73 µM) in test [2] (HL-60, 24 h).

Consider `COc1ccc2c(c1)c(CC(=O)O)c(C)n2C(=O)c1ccc(Cl)cc1` [indomethacin], for which the half-inhibitory concentration (IC50) in test [1] (HL-60 cells, LPS 1 μg/ml, 24 hrs, read-out: IC50 for LPS-induced PGE2 production) was determined as 0.052 µg/mL (≈ 0.145 µM).

As for `CC(C)=CCC[C@@H](C)c1ccc(C)c(O)c1` [xanthorrhizol], the “concentrations showing inhibition of COX-2 expression” value with COX-2 expression is 5 to 10 µg/mL.

The record behind these values is patent publication US7205011B2, “Anti-inflammatory activity of a specific turmeric extract” (Board of Regents, Acting for and on behalf of, University …, priority 2003, dated 2007).
